Test results as given in patent US11786486B2, “Pharmaceutical compositions comprising 2,3,5-trimethyl-6-nonylcyclohexa-2,5-diene-1,4-dione” (PTC THERAPEUTICS, INC., priority 2021, dated 2023).
Converted amounts (≈) assume the structure as drawn.

Experiments:
[1] = Physical stability on storage (microscope / polarized microscope); assay type: physicochemical; conditions: 25° C./60% RH and 5° C.
Experimental: Certain combinations of Gelucire 44/14 with Solutol HS15, TPGS and Tween 80 were screened as shown in Table 2 at 200 mg/g concentration of Compound 1. Physical stability was observed microscopically at week one at 25° C./60% RH and at 5° C. Bioperformance was assessed visual observation after 10× dilution in FaSSIF. Based on the crash resistance test performed with ten times dilution with FaSSIF, the most promising formulation combination for Gelucire 44/14 appeared to be 80% w/w Gelucire 44/14, 10% w/w TPGS and 10% w/w Tween 80.
In the above table and in this paragraph, the % w/w are based on the total weight of the vehicle without compound. The 80% w/w Gelucire 44/14, 10% w/w TPGS and 10% w/w Tween 80 formulation vehicles were further tested at lower Compound 1 concentrations of 150 mg/g (i.e. 150 mg of Compound 1 in 1 g of Compound 1+vehicle) and 100 mg/g (i.e. 100 mg of Compound 1 in 1 g of Compound 1+vehicle) to minimize the crystallization risk upon storage. Physical stability was observed microscopically at week one at 25° C./60% RH and at 5° C. Bioperformance was assessed visual observation after 10× dilution in FaSSIF.
Physical stability evaluation of both Gelucire 44/14-based and Labrafac-WL-1349-based formulation vehicles was done under polarized microscope. […] Therefore, Labrafac-WL-1349-based formulation was physically stable upon storage.

[2] = Solubility of Compound 1 in oils, surfactants and co-surfactants; assay type: physicochemical
Experimental: Based on the initial screening as shown in Table 1 and based on limits of excipients allowed by FDA, the solubility of Compound 1 in the oils in Table 1A were measured. Based on the solubility data, Labrafac WL 1349 was further pursued.
A total of 36 different excipients including pharmaceutically acceptable oils, surfactants and co-surfactants were evaluated for Compound 1. Higher solubility of Compound 1 in oils is desirable to increase drug loading.

SMILES: CCCCCCCCCC1=C(C)C(=O)C(C)=C(C)C1=O [Compound 1, 2,3,5-trimethyl-6-nonylcyclohexa-2,5-diene-1,4-dione]
- Physical stability ([1]; 150 mg/g in vehicle 80% Gelucire 44/14, 10% TPGS, 10% Tween 80, week one): Crystallization observed
- Physical stability ([1]; 200 mg/g in vehicle 70% Gelucire 44/14, 10% TPGS, 20% Tween 80, week one): Crystallization
- Physical stability ([1]; 200 mg/g in vehicle 80% Gelucire 44/14, 10% TPGS, 10% Tween 80, week one): Crystallization
- Physical stability ([1]; 200 mg/g in vehicle 80% Gelucire 44/14, 20% Tween 80, week one): Crystallization
- Physical stability ([1]; 200 mg/g in vehicle 85% Gelucire 44/14, 5% Solutol HS15, 5% TPGS, 5% Tween 80, week one): Crystallization
- Physical stability ([1]; 200 mg/g in vehicle 90% Gelucire 44/14, 10% TPGS, week one): Crystallization
- Physical stability ([1]; 200 mg/g in vehicle 90% Gelucire 44/14, 10% Tween 80, week one): Crystallization
- Solubility of Compound 1 ([2]; in Soybean oil, RT): <150 mg/g
- solubility ([2]; oil or lipid, in Capryol 90, RT): 125 mg/mL (≈ 451 mM)
- solubility ([2]; oil or lipid, in Capryol PGMC, RT): 184 mg/mL (≈ 665 mM)
- solubility ([2]; oil or lipid, in Corn Oil, RT): 115 mg/mL (≈ 417 mM)
- solubility ([2]; oil or lipid, in Cottonseed Oil, RT): 112 mg/mL (≈ 404 mM)
- solubility ([2]; oil or lipid, in Labrafac Lipo WL1349, RT): 141 mg/mL (≈ 510 mM)
- solubility ([2]; oil or lipid, in Labrafac PG, RT): 222 mg/mL (≈ 803 mM)
- solubility ([2]; oil or lipid, in Labrafil M1944CS, RT): 101 mg/mL (≈ 364 mM)
- solubility ([2]; oil or lipid, in Labrafil M2125CS, RT): 119 mg/mL (≈ 429 mM)
- solubility ([2]; oil or lipid, in Lauroglycol 90, RT): 133 mg/mL (≈ 483 mM)
- solubility ([2]; oil or lipid, in Lauroglycol FCC, RT): 160 mg/mL (≈ 578 mM)
- solubility ([2]; oil or lipid, in Maisine CC, RT): 90.3 mg/mL (≈ 327 mM)
- solubility ([2]; oil or lipid, in Olive oil, RT): 135 mg/mL (≈ 488 mM)
- solubility ([2]; oil or lipid, in Plurol oleique CC 497): 50 to 100 mg/mL (≈ 181 to 362 mM)
- solubility ([2]; oil or lipid, in Sesame oil, RT): 139 mg/mL (≈ 503 mM)
- solubility ([2]; oil or lipid, in Soybean Oil, RT): 111 mg/mL (≈ 400 mM)
- solubility ([2]; organic solvent or mixture, in Gelucire 44/14, 45° C.): 269 mg/mL (≈ 973 mM)
- solubility ([2]; organic solvent or mixture, in Labrasol, RT): 35.7 mg/mL (≈ 129 mM)
- solubility ([2]; organic solvent or mixture, in PEG400, 37° C.): 11 mg/mL (≈ 39.8 mM)
- solubility ([2]; organic solvent or mixture, in Solutol HS15, 37° C.): 94 mg/mL (≈ 340 mM)
- solubility ([2]; organic solvent or mixture, in TPGS, 45° C.): 195 mg/mL (≈ 705 mM)
- solubility ([2]; organic solvent or mixture, in Triethyl citrate, RT): 30.1 mg/mL (≈ 109 mM)
- solubility ([2]; organic solvent or mixture, in Tween 60): 50 to 100 mg/mL (≈ 181 to 362 mM)
- solubility ([2]; organic solvent or mixture, in Tween 80): 25 to 50 mg/mL (≈ 90.4 to 181 mM)
